Laboratory results reported in patent US4401660A, “Ester derivatives of 5-O-mycaminosyl tylonolide and method of using same” (Eli Lilly and Company, priority 1981, dated 1983).
Where two headings read alike, the source gives them in different places.

Legend:
[1] = tested on: Haemophilus influenzae Holt; assay: MIC, standard agar-dilution assay (Table II); format: cell-based; parameters: unit not given here; details: ampicillin-sensitive strain
Procedure: (§1) The MIC's in Table II were determined by standard agar-dilution assays. The MIC's in Table III were obtained using a conventional broth-dilution microtiter test.

[2] = tested on: Haemophilus influenzae R252; assay: MIC, standard agar-dilution assay (Table II); format: cell-based; parameters: unit not given here; details: Haemophilus influenzae R252, ampicillin-resistant strain
Procedure: as §1

[3] = tested on: Staphylococcus aureus S13E; assay: MIC, standard agar-dilution assay (Table II); format: cell-based; parameters: unit not given here
Procedure: as §1

[4] = tested on: Staphylococcus aureus V41; assay: MIC, standard agar-dilution assay (Table II); format: cell-based; parameters: unit not given here; details: Staphylococcus aureus V41, penicillin-resistant strain
Procedure: as §1

[5] = tested on: Staphylococcus aureus X1.1; assay: MIC, standard agar-dilution assay (Table II); format: cell-based; parameters: unit not given here
Procedure: as §1

[6] = tested on: Staphylococcus aureus X400; assay: MIC, standard agar-dilution assay (Table II); format: cell-based; parameters: unit not given here; details: Staphylococcus aureus X400, methicillin-resistant strain
Procedure: as §1

[7] = tested on: Staphylococcus epidermidis EPI1; assay: MIC, standard agar-dilution assay (Table II); format: cell-based; parameters: unit not given here
Procedure: as §1

[8] = tested on: Staphylococcus epidermidis EPI2; assay: MIC, standard agar-dilution assay (Table II); format: cell-based; parameters: unit not given here
Procedure: as §1

[9] = tested on: Streptococcus Group D 9960; assay: MIC, standard agar-dilution assay (Table II); format: cell-based; parameters: unit not given here
Procedure: as §1

[10] = tested on: Streptococcus Group D X66; assay: MIC, standard agar-dilution assay (Table II); format: cell-based; parameters: unit not given here
Procedure: as §1

[11] = tested on: Streptococcus pneumoniae Park I; assay: MIC, standard agar-dilution assay (Table II); format: cell-based; parameters: unit not given here
Procedure: as §1

[12] = tested on: Streptococcus pyogenes C203; assay: MIC, standard agar-dilution assay (Table II); format: cell-based; parameters: unit not given here
Procedure: as §1

[13] = tested on: Mycoplasma gallisepticum; assay: MIC, broth-dilution microtiter test (Table III); format: cell-based; parameters: unit not given here
Procedure: as §1

[14] = tested on: Mycoplasma hyorhinis; assay: MIC, broth-dilution microtiter test (Table III); format: cell-based; parameters: unit not given here
Procedure: as §1

[15] = tested on: Mycoplasma synoviae; assay: MIC, broth-dilution microtiter test (Table III); format: cell-based; parameters: unit not given here
Procedure: as §1

[16] = tested on: Pasteurella haemolytica 22C; assay: MIC, broth-dilution microtiter test (Table III); format: cell-based; parameters: unit not given here
Procedure: as §1

[17] = tested on: Pasteurella haemolytica 23C; assay: MIC, broth-dilution microtiter test (Table III); format: cell-based; parameters: unit not given here
Procedure: as §1

[18] = tested on: Pasteurella haemolytica 41D; assay: MIC, broth-dilution microtiter test (Table III); format: cell-based; parameters: unit not given here
Procedure: as §1

[19] = tested on: Pasteurella multocida 17E; assay: MIC, broth-dilution microtiter test (Table III); format: cell-based; parameters: unit not given here; details: bovine isolate
Procedure: as §1

[20] = tested on: Pasteurella multocida 22A; assay: MIC, broth-dilution microtiter test (Table III); format: cell-based; parameters: unit not given here
Procedure: as §1

[21] = tested on: Pasteurella multocida 40G; assay: MIC, broth-dilution microtiter test (Table III); format: cell-based; parameters: unit not given here
Procedure: as §1

[22] = tested on: Pasteurella multocida 60A; assay: MIC, broth-dilution microtiter test (Table III); format: cell-based; parameters: unit not given here; details: avian isolate
Procedure: as §1

[23] = tested on: Pasteurella multocida 68C; assay: MIC, broth-dilution microtiter test (Table III); format: cell-based; parameters: unit not given here
Procedure: as §1

[24] = tested on: Staphylococcus aureus; assay: MIC, broth-dilution microtiter test (Table III); format: cell-based; parameters: unit not given here
Procedure: as §1

[25] = tested on: Streptococcus sp. 80; assay: MIC, broth-dilution microtiter test (Table III); format: cell-based; parameters: unit not given here
Procedure: as §1

[26] = tested on: Streptococcus pyogenes C203; assay: ED50 in mice with experimental infections (Table IV); format: in vivo; details: Streptococcus pyogenes, doses given 1 and 4 hours postinfection
Procedure, shortened: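 Read-out is ED50, the mg/kg dose protecting half of infected mice; values refer to each of two doses, given 1 and 4 hours after infection.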

[27] = tested on: Pasteurella multocida; assay: Treatment of Pasteurella infections in chicks (Table V); format: in vivo, one-day-old chicks; details: Pasteurella multocida, sc, 4 h; 30 mg/kg by subcutaneous injection one and four hours post challenge; read-out: Deaths in Treated Chicks/Number Treated (converted)
Procedure, shortened: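 Dosing was 30 mg/kg by subcutaneous injection, one and four hours after challenge. Day-old chicks received 0.1 ml of a 10^-3 dilution of a 20-hour tryptose broth culture of avian P. multocida subcutaneously. Nonmedicated infected chicks served as controls, ten per group.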

[28] = C203, oral, read-out: ED50, Oral
[29] = C203, sc, subcutaneous, read-out: ED50, Subcutaneous

| Structure (SMILES) | minimal inhibitory concentration (MIC) [1] | minimal inhibitory concentration (MIC) [2] | minimal inhibitory concentration (MIC) [3] | minimal inhibitory concentration (MIC) [4] | minimal inhibitory concentration (MIC) [5] | minimal inhibitory concentration (MIC) [6] | minimal inhibitory concentration (MIC) [7] | minimal inhibitory concentration (MIC) [8] | minimal inhibitory concentration (MIC) [9] | minimal inhibitory concentration (MIC) [10] | minimal inhibitory concentration (MIC) [11] | minimal inhibitory concentration (MIC) [12] | minimal inhibitory concentration (MIC) [13] | minimal inhibitory concentration (MIC) [14] | minimal inhibitory concentration (MIC) [15] | minimal inhibitory concentration (MIC) [16] | minimal inhibitory concentration (MIC) [17] | minimal inhibitory concentration (MIC) [18] | minimal inhibitory concentration (MIC) [19] | minimal inhibitory concentration (MIC) [20] | other results |
| --- | --- | --- | --- | --- | --- | --- | --- | --- | --- | --- | --- | --- | --- | --- | --- | --- | --- | --- | --- | --- | --- |
| CCC1OC(=O)CC(O)C(C)C(OC2OC(C)C(O)C(N(C)C)C2OC(C)=O)C(CC=O)CC(C)C(=O)C=CC(C)=CC1COC(C)=O (centres unmarked) [Compound 9] | 1 | 4 | 0.25 | 0.5 | 0.45 | 0.5 | 0.25 | 0.25 | 0.5 | 0.5 | 0.125 | 0.25 | < 0.78 | 1.56 | 0.097 | 3.12 | 3.12 | 3.12 | 1.56 | 6.25 | minimal inhibitory concentration (MIC) [21]: 1.56; minimal inhibitory concentration (MIC) [22]: 1.56; minimal inhibitory concentration (MIC) [23]: 3.12; minimal inhibitory concentration (MIC) [24]: 0.78; minimal inhibitory concentration (MIC) [25]: 0.195; ED50 [26, 28]: 137 mg/kg; ED50 [26, 29]: 6.4 mg/kg; mortality at 30 mg/kg [27]: 0% |
| CCC(=O)OCC1C=C(C)C=CC(=O)C(C)CC(CC=O)C(OC2OC(C)C(O)C(N(C)C)C2OC(C)=O)C(C)C(O)CC(=O)OC1CC (centres unmarked) [Compound 12, 2'-O-Acetyl-23-O-propionyl-OMT] | 2 | 8 | 0.5 | 0.5 | 0.5 | 0.5 | 0.25 | 0.25 | 0.5 | 0.5 | 0.125 | 0.25 | < 0.05 | 3.12 | < 0.05 | 6.25 | 3.12 | 3.12 | 1.56 | 0.78 | minimal inhibitory concentration (MIC) [21]: 0.78; minimal inhibitory concentration (MIC) [22]: 1.56; minimal inhibitory concentration (MIC) [23]: 1.56; minimal inhibitory concentration (MIC) [24]: 0.39; minimal inhibitory concentration (MIC) [25]: 0.39; ED50 [26, 28]: 150 mg/kg; ED50 [26, 29]: 8.1 mg/kg; mortality at 30 mg/kg [27]: 0% |
| CCC1OC(=O)CC(O)C(C)C(OC2OC(C)C(O)C(N(C)C)C2O)C(CC=O)CC(C)C(=O)C=CC(C)=CC1COC(C)=O (centres unmarked) [Compound 13, 23-O-Acetyl-OMT] | 1 | 4 | 0.25 | 0.25 | 0.25 | 0.5 | 0.25 | 0.25 | 0.5 | 0.25 | 0.125 | 0.125 | 0.05 | 0.78 | 0.097 | 3.12 | 3.12 | 6.25 | 1.56 | 1.56 | minimal inhibitory concentration (MIC) [21]: 3.12; minimal inhibitory concentration (MIC) [22]: 1.56; minimal inhibitory concentration (MIC) [23]: 1.56; minimal inhibitory concentration (MIC) [24]: 0.39; minimal inhibitory concentration (MIC) [25]: 0.195; ED50 [26, 28]: 109 mg/kg; ED50 [26, 29]: 3.3 mg/kg; mortality at 30 mg/kg [27]: 0% |
| CCC(=O)OCC1C=C(C)C=CC(=O)C(C)CC(CC=O)C(OC2OC(C)C(O)C(N(C)C)C2O)C(C)C(O)CC(=O)OC1CC (centres unmarked) [Compound 14, 23-O-Propionyl-OMT] | 1 | 4 | 0.25 | 0.25 | 0.25 | 0.25 | 0.125 | 0.125 | 0.25 | 0.25 | 0.125 | 0.125 | 0.05 | 6.25 | 0.05 | 6.25 | 3.12 | 6.25 | 1.56 | 3.12 | minimal inhibitory concentration (MIC) [21]: 1.56; minimal inhibitory concentration (MIC) [22]: 0.78; minimal inhibitory concentration (MIC) [23]: 1.56; minimal inhibitory concentration (MIC) [24]: 0.39; minimal inhibitory concentration (MIC) [25]: 0.195; ED50 [26, 28]: 106 mg/kg; ED50 [26, 29]: 6 mg/kg; mortality at 30 mg/kg [27]: 0% |
| CCC1OC(=O)CC(O)C(C)C(OC2OC(C)C(OC(C)=O)C(N(C)C)C2OC(C)=O)C(CC=O)CC(C)C(=O)C=CC(C)=CC1COC(=O)Cc1ccccc1 (centres unmarked) [Compound 27, 2',4'-Di-O-acetyl-23-O-phenylacetyl-OMT] | 1 | 1 | 0.25 | 0.25 | 0.25 | 0.25 | 0.25 | 0.25 | 0.125 | 0.125 | 0.03 | 0.06 | 0.05 | 0.097 | 0.05 | 3.12 | 3.12 | 3.12 | 1.56 | 3.12 | minimal inhibitory concentration (MIC) [21]: 3.12; minimal inhibitory concentration (MIC) [22]: 0.78; minimal inhibitory concentration (MIC) [23]: 1.56; minimal inhibitory concentration (MIC) [24]: 0.097; minimal inhibitory concentration (MIC) [25]: 0.05; ED50 [26, 28]: 159 mg/kg; ED50 [26, 29]: > 30 mg/kg; mortality at 30 mg/kg [27]: 90% |
